How the values were obtained:
Experiment in all cases: KinaseProfiler off-target kinase profiling
Assay type in all cases: biochemical
Conditions in all cases: 10 μM, ATP near Km
HIPK2 = HIPK2 (Homo sapiens (Human), UniProt Q9H2X6)
Procedure, shortened: (§1)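 ATP was held near each kinase's Km while compound was present at 10 μM. Runs were done twice, and values are the average percent of control.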

TAO3 = TAO3 (Homo sapiens (Human), UniProt Q9H2K8)
Procedure, shortened: as §1

Flt4 = Flt4 (Homo sapiens (Human), UniProt P35916)
Procedure, shortened: as §1

TSSK1 = TSSK1 (Homo sapiens (Human), UniProt Q9BXA7)
Procedure, shortened: as §1

TAO2 = TAO2 (Homo sapiens (Human), UniProt Q9UL54)
Procedure, shortened: as §1

MKK4_m = MKK4_m (Mus musculus (Mouse), UniProt P47809)
Procedure, shortened: as §1

Rsk2 = Rsk2 (Homo sapiens (Human), UniProt P51812)
Procedure, shortened: as §1

MKK7beta = MKK7beta (Homo sapiens (Human), UniProt O14733)
Procedure, shortened: as §1

Met = Met (Homo sapiens (Human), UniProt P08581)
Procedure, shortened: as §1

IRAK4 = IRAK4 (Homo sapiens (Human), UniProt Q9NWZ3)
Procedure, shortened: as §1

CAMK1 = CAMK1 (Homo sapiens (Human), UniProt Q14012)
Procedure, shortened: as §1

Syk = Syk (Homo sapiens (Human), UniProt P43405)
Procedure, shortened: as §1

HIPK3 = HIPK3 (Homo sapiens (Human), UniProt Q9H422)
Procedure, shortened: as §1

Pim-1 = Pim-1 (Homo sapiens (Human), UniProt P11309)
Procedure, shortened: as §1

LIMK1 = LIMK1 (Homo sapiens (Human), UniProt P53667)
Procedure, shortened: as §1

CHK1 = CHK1 (Homo sapiens (Human), UniProt O14757)
Procedure, shortened: as §1

ULK2 = ULK2 (Homo sapiens (Human), UniProt Q8IYT8)
Procedure, shortened: as §1

CDK7/cyclinH/MAT1 = CDK7/cyclinH/MAT1 (Homo sapiens (Human), UniProt P50613)
Procedure, shortened: as §1

PRKG1beta = PRKG1beta (Homo sapiens (Human), UniProt Q13976)
Procedure, shortened: as §1

PKCepsilon = PKCepsilon (Homo sapiens (Human), UniProt Q02156)
Procedure, shortened: as §1

CK1gamma2 = CK1gamma2 (Homo sapiens (Human), UniProt P78368)
Procedure, shortened: as §1

PKD2 = PKD2 (Homo sapiens (Human), UniProt Q9BZL6)
Procedure, shortened: as §1

MST2 = MST2 (Homo sapiens (Human), UniProt Q13188)
Procedure, shortened: as §1

PASK = PASK (Homo sapiens (Human), UniProt Q96RG2)
Procedure, shortened: as §1

p38beta = p38beta (Homo sapiens (Human), UniProt Q15759)
Procedure, shortened: as §1

FGFR3 = FGFR3 (Homo sapiens (Human), UniProt P22607)
Procedure, shortened: as §1

TNK2 = TNK2 (Homo sapiens (Human), UniProt Q07912)
Procedure, shortened: as §1

JNK2alpha2 = JNK2alpha2 (Homo sapiens (Human), UniProt P45984)
Procedure, shortened: as §1

EphB1 = EphB1 (Homo sapiens (Human), UniProt P54762)
Procedure, shortened: as §1

Plk1 = Plk1 (Homo sapiens (Human), UniProt P53350)
Procedure, shortened: as §1

KIT = KIT (Homo sapiens (Human), UniProt P10721)
Procedure, shortened: as §1

PAK5 = PAK5 (Homo sapiens (Human), UniProt Q9P286)
Procedure, shortened: as §1

MYLK = MYLK (Homo sapiens (Human), UniProt Q15746)
Procedure, shortened: as §1

Rsk3 = Rsk3 (Homo sapiens (Human), UniProt Q15349)
Procedure, shortened: as §1

CDK2/cyclinE = CDK2/cyclinE (Homo sapiens (Human), UniProt P24941)
Procedure, shortened: as §1

WNK3 = WNK3 (Homo sapiens (Human), UniProt Q9BYP7)
Procedure, shortened: as §1

EphA3 = EphA3 (Homo sapiens (Human), UniProt P29320)
Procedure, shortened: as §1

ARK5 = ARK5 (Homo sapiens (Human), UniProt O60285)
Procedure, shortened: as §1

CK2 = CK2 (Homo sapiens (Human), UniProt P68400)
Procedure, shortened: as §1

Chain of MKK4_m (P47809 whole entry): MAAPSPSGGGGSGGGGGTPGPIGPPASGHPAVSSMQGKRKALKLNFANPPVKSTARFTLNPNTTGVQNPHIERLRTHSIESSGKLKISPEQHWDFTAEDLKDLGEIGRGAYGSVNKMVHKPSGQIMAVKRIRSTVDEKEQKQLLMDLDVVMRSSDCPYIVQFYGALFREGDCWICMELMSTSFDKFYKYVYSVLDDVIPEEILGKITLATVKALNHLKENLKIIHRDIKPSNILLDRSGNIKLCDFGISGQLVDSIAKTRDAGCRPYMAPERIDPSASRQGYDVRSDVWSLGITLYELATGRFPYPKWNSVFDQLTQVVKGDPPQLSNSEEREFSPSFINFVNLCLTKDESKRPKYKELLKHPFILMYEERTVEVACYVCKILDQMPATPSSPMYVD
Chain of JNK2alpha2 (P45984 whole entry): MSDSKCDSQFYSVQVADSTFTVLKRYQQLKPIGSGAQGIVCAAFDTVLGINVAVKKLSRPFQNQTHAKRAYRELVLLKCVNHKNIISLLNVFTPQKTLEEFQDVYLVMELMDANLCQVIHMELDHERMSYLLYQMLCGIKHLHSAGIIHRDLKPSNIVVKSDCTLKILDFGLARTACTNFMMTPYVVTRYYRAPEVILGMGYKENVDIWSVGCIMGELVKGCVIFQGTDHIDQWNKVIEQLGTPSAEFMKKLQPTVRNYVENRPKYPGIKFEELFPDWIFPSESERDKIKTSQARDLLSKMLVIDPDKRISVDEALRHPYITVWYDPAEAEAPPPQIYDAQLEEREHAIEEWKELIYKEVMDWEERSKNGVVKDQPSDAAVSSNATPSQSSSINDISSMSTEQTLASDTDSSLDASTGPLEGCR
Chain of Plk1 (P53350 whole entry): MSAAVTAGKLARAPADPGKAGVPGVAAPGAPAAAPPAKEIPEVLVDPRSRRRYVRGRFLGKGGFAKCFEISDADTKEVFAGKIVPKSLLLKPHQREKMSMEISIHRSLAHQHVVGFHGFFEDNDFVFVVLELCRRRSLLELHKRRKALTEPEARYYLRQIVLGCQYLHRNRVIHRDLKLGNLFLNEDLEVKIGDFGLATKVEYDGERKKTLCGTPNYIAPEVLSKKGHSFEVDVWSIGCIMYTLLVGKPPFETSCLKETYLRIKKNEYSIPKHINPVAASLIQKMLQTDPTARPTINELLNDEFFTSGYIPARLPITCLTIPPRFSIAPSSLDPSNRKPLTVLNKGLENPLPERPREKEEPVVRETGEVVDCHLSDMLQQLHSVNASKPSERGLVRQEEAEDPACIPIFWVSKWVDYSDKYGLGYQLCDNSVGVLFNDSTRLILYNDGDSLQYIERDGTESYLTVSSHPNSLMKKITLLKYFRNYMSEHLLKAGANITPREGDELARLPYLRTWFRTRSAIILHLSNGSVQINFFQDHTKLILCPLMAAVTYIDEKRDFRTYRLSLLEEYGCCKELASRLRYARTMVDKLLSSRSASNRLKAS
Chain of CK1gamma2 (P78368 whole entry): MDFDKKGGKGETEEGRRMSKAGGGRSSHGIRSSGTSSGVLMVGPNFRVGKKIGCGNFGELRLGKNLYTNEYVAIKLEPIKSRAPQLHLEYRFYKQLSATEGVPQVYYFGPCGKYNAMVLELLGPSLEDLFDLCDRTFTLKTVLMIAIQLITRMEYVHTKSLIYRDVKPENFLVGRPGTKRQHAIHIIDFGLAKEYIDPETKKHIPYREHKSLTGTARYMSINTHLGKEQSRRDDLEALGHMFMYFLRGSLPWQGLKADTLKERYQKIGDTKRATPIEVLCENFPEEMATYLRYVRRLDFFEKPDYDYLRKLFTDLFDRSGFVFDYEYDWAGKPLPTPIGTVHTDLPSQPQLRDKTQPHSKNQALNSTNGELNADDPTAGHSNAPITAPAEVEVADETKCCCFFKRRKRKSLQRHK
Chain of ULK2 (Q8IYT8 whole entry): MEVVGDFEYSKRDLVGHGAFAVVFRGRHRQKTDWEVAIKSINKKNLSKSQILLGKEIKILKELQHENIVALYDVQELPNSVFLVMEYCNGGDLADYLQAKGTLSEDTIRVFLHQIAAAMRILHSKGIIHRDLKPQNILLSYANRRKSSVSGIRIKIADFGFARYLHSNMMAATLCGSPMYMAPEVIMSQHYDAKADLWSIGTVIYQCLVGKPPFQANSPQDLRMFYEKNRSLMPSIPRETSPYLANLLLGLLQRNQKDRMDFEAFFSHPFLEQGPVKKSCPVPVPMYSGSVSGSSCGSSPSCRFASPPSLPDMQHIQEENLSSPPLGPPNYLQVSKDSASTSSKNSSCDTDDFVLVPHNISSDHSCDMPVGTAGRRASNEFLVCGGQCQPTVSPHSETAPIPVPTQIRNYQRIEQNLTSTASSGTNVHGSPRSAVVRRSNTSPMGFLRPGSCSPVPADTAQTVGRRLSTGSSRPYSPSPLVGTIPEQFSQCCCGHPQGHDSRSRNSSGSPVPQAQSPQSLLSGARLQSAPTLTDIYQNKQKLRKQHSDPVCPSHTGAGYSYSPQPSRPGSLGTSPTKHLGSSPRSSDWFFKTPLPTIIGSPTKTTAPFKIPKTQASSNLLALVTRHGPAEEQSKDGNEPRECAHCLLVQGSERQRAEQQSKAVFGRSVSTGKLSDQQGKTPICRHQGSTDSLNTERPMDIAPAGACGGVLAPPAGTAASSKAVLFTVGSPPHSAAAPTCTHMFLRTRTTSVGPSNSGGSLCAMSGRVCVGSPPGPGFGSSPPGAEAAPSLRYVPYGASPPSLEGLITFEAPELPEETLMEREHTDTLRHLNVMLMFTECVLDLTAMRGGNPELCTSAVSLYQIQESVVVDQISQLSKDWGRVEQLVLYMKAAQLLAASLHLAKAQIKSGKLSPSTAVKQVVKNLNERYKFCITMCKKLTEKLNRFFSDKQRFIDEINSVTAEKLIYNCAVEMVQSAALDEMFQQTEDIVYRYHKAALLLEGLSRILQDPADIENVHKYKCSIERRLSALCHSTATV
Chain of FGFR3 (P22607 23-806): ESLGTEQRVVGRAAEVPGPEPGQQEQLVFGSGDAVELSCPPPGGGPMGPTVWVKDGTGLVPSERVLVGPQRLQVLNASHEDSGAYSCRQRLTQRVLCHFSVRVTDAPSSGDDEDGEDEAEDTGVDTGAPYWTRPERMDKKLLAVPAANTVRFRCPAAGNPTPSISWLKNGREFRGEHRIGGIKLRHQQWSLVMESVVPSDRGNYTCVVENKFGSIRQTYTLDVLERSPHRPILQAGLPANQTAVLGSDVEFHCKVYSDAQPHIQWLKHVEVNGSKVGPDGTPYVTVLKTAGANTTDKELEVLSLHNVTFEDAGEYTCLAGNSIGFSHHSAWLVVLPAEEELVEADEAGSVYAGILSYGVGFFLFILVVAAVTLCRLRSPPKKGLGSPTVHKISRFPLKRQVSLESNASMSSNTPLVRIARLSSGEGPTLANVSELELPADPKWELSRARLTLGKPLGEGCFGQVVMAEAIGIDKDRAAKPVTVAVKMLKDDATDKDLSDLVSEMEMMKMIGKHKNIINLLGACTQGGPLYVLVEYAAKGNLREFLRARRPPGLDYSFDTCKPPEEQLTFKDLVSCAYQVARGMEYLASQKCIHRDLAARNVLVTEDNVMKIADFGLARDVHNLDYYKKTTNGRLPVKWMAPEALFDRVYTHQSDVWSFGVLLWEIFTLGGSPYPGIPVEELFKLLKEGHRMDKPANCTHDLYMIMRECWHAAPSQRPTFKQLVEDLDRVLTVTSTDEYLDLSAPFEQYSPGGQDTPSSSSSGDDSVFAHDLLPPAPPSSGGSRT
Chain of PAK5 (Q9P286 whole entry): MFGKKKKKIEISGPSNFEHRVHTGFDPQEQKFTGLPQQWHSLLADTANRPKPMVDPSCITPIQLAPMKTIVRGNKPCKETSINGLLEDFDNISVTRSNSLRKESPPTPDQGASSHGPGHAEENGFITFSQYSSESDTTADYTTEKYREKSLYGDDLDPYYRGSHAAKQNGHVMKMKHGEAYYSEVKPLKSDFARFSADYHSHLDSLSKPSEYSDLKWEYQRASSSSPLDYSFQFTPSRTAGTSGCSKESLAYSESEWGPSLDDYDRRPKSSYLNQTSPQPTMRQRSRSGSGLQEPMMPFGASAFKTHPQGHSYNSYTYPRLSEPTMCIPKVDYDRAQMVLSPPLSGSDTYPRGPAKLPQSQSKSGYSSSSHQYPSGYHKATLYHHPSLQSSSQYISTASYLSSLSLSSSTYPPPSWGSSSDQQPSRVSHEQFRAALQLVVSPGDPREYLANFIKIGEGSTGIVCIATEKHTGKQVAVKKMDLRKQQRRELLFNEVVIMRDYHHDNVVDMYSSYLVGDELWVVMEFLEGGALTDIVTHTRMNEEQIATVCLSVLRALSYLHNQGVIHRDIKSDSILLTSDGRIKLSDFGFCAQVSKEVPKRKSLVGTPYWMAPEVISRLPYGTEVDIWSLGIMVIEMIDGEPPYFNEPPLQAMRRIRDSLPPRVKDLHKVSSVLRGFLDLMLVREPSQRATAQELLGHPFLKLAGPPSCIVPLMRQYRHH
Chain of ARK5 (O60285 whole entry): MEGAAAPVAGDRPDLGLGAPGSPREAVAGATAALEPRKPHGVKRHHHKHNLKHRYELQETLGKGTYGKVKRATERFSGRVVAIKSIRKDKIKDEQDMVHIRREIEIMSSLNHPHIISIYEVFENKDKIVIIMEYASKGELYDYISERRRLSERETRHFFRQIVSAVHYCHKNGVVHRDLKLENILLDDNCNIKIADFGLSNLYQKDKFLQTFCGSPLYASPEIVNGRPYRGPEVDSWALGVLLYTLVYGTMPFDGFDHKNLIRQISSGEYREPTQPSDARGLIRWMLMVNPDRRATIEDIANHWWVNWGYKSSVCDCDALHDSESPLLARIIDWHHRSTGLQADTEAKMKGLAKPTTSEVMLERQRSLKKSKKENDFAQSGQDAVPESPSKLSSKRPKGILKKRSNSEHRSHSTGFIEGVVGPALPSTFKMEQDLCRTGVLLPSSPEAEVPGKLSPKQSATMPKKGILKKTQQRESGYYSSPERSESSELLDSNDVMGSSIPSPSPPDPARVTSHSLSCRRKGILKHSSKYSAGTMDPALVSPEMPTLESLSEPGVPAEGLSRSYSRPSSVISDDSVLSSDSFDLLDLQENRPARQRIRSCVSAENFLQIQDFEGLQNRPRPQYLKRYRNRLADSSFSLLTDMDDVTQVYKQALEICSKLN

COCc1ccc2c(c1)C(NC(=O)Nc1c(C)c(-c3cnn(C)c3)nn1-c1ccccc1)COC2 (stereo not drawn) [Example 32, 1-(1′,4-dimethyl-1-phenyl-1H,1′H-[3,4′-bipyrazol]-5-yl)-3-(6-(methoxymethyl)isochroman-4-yl)urea]
Avg. POC (HIPK2): 99.5 POC | Avg. POC (TAO3): 105 POC | Avg. POC (Flt4): 98 POC | Avg. POC (TSSK1): 88.5 POC | Avg. POC (TAO2): 104 POC | Avg. POC (MKK4_m): 133 POC | Avg. POC (Rsk2): 92.5 POC | Avg. POC (MKK7beta): 138.5 POC | Avg. POC (Met): 118.5 POC | Avg. POC (IRAK4): 99 POC | Avg. POC (CAMK1): 100 POC | Avg. POC (Syk): 115 POC | Avg. POC (HIPK3): 107 POC | Avg. POC (Pim-1): 109 POC | Avg. POC (LIMK1): 95 POC | Avg. POC (CHK1): 103 POC | Avg. POC (ULK2): 103 POC | Avg. POC (CDK7/cyclinH/MAT1): 122.5 POC | Avg. POC (PRKG1beta): 80.5 POC | Avg. POC (PKCepsilon): 97.5 POC | Avg. POC (CK1gamma2): 101.5 POC | Avg. POC (PKD2): 110.5 POC | Avg. POC (MST2): 111.5 POC | Avg. POC (PASK): 137 POC | Avg. POC (p38beta): 119 POC | Avg. POC (FGFR3): 107 POC | Avg. POC (TNK2): 132 POC | Avg. POC (JNK2alpha2): 102.5 POC | Avg. POC (EphB1): 145.5 POC | Avg. POC (Plk1): 108 POC | Avg. POC (KIT): 94.5 POC | Avg. POC (PAK5): 111 POC | Avg. POC (MYLK): 97.5 POC | Avg. POC (Rsk3): 92 POC | Avg. POC (CDK2/cyclinE): 106 POC | Avg. POC (WNK3): 103.5 POC | Avg. POC (EphA3): 122 POC | Avg. POC (ARK5): 118.5 POC | Avg. POC (CK2): 97 POC
